Measurements taken from PubChem BioAssay (NCI).
Values joined by “and” are separate entries in the source; they are usually repeats but may differ in a detail not shown here. Equal values may be shown once.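 Step 1: Grow cells in 96-well plates. Step 2: Expose to compound for 48 hours at 5 concentrations. Step 3: Interpolate endpoints linearly; if unreached, use highest concentration. The concentration for 50% growth inhibition is given as GI50. TGI is the concentration that stops growth completely.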

Experiments:
Experiment in all cases: DTP human tumour cell line panel, 48 h
[1] = tested on: BT-549 breast
[2] = tested on: CCRF-CEM leukemia
[3] = tested on: HCT-116 colon
[4] = tested on: HL-60(TB) leukemia
[5] = tested on: IGROV1 ovarian
[6] = tested on: NCI-H23 lung
[7] = tested on: NCI-H460 lung
[8] = tested on: SF-295 CNS
[9] = tested on: SN12C renal
[10] = tested on: SNB-75 CNS

Structure (SMILES) | GI50 [1] | TGI [1] | GI50 [2] | TGI [2] | GI50 [3] | TGI [3] | GI50 [4] | TGI [4] | GI50 [5] | TGI [5] | GI50 [6] | TGI [6] | GI50 [7] | TGI [7] | GI50 [8] | TGI [8] | GI50 [9] | TGI [9] | GI50 [10] | TGI [10]
CCCCSc1nc(N)c2cn[nH]c2n1 | 20.1 µM | 43.2 µM | 23.6 µM | 68 µM | 14.1 µM | 34.8 µM | 23.6 µM | > 100 µM | 29.5 µM | > 100 µM | 13.8 µM | 30.9 µM | 19.6 µM | 51.1 µM | 20.8 µM | 38.8 µM | 12.8 µM | 28.5 µM | 26.4 µM | 69 µM
O=C1C(Cl)=C(Cl)C(=O)N1c1ccc(F)cc1 | – | 30.1 µM | – | 16.5 µM | – | > 54.5 µM | – | 11.5 µM | – | 43.6 µM | – | 36.9 µM | – | > 100 µM | – | > 100 µM | – | 34.9 µM | – | 20.8 µM
COc1cc(C2c3cc4c(cc3[C@@H](Nc3ccc([N+](=O)[O-])cc3)C3COC(=O)[C@H]23)OCO4)cc(OC)c1O (stereo not given in full) | – | 6.39 µM | 0.226 µM | 0.967 µM and 8.1 µM | – | 14.2 µM | 0.0114 µM | – | – | 24.3 µM | 0.341 µM | 4.12 µM | 0.0658 µM | 2.14 µM | – | 4.85 µM | 0.486 µM | 7.96 µM | 0.333 µM | 0.836 µM and 7.83 µM
Cc1c(NC(=O)Nc2c(Cl)cccc2Cl)c(=O)n(-c2ccccc2)n1C | – | > 100 µM | – | > 100 µM | – | > 100 µM | – | > 100 µM | – | > 100 µM | – | > 100 µM | – | > 100 µM | – | > 100 µM | – | > 100 µM | – | > 100 µM
CSc1ccc(NC(=O)Nc2cc(C)ccn2)cc1 | – | > 100 µM | – | > 100 µM | – | > 100 µM | – | > 100 µM | – | > 100 µM | – | > 100 µM | – | > 100 µM | – | > 100 µM | – | > 100 µM | – | > 100 µM
Cc1c(Cl)cccc1NC(=O)c1sc2nc3c(cc2c1N)C(=O)CCC3 | 0.169 µM | > 100 µM | 0.108 µM | > 100 µM | 0.0644 µM | > 100 µM | 0.081 µM | 0.769 µM | 0.153 µM | > 100 µM | 0.137 µM | > 100 µM | 0.0407 µM | > 100 µM | 0.0429 µM | > 100 µM | 0.124 µM | > 100 µM | 0.0385 µM | 20.9 µM
Cc1ccc(N=Nc2c(O)ccc3n[nH]nc23)cc1 | 21.2 µM | > 100 µM | 4.13 µM | 55.6 µM | 12.5 µM | > 100 µM | 7.32 µM | 57.8 µM | 12.2 µM | 50.6 µM | 5.65 µM | 38.3 µM | 13.9 µM | 52.9 µM | 11.3 µM | 38 µM | 17 µM | > 100 µM | 17.4 µM | > 100 µM
Cn1cc(C2=C(c3cc[nH]c3)C(=O)NC2=O)c2ccccc21 | > 17.9 µM | > 25 µM | > 25 µM | > 25 µM | > 25 µM | > 25 µM | > 25 µM | > 25 µM | > 25 µM | > 25 µM | > 25 µM | > 25 µM | > 25 µM | > 25 µM | > 25 µM | > 25 µM | > 25 µM | > 25 µM | 1.96 µM | > 25 µM
